The assay concerns MDA-MB-231 cells. Kind of assay: cells. The format is cell-based. As to conditions: Homo sapiens, MDA-MB-231, 48 h. On the procedure: Here, 250 μl of MDA-MB-231 cells in culture medium at cell density of 5.2×10^3 cells/ml was seeded onto the gels (0.2, 0.5, 1.0, 2.5 and 4.0 kPa). The culture medium was changed every 3 days. […] Then, the cells were washed with PBS and the fluorescence intensity was measured using the AlamarBlue cell viability assay as described above. Cell viability in the presence of anti-cancer drugs was normalized to the untreated control groups (0 μM).

Where two headings read alike, the source gives them in different places.

For `COc1cccc2c1C(=O)c1c(O)c3c(c(O)c1C2=O)C[C@@](O)(C(=O)CO)C[C@@H]3O[C@H]1C[C@H](N)[C@H](O)[C@H](C)O1` [doxorubicin], the viability (in general, a read-out of living cells in per cent, often relative to untreated cells) at 100 µM runs as follows: (read-out: cell viability, 100 μM doxorubicin, 48 hours, 0.2 and 0.5 kPa gels) around 80%; (read-out: cell viability, 100 μM doxorubicin, 48 hours, HA-Tyr gels 2.5 and 4.0 kPa) around 20%; (read-out: cell viability, 100 μM doxorubicin, 48 hours, cell culture plate) around 10%.

Values taken from patent US20160145580A1, “METHOD OF CULTURING CANCER STEM CELLS” (AGENCY FOR SCIENCE, TECHNOLOGY AND RESEARCH, priority 2013, published 2016).
